Literature values, collected in patent US20080096972A1, “COMPOUND FORMULATIONS OF 2-AMINO-1, 3-PROPANEDIOL COMPOUNDS” (priority 2004, published 2008).

Conditions: shortly after preparation or upon storage

In the case of CCCCCCCCc1ccc(CCC(N)(CO)CO)cc1 [2-amino-2-[2-(4-octylphenyl)ethyl]-propane-1,3-diol], the “crystalline deposits in aqueous solutions” value is given as “crystalline deposits of this compound have been observed”.
